Values of other authors, collected in patent US20080213414A1, “Compositions containing phaseolus vulgaris extract and alpinia officinarum extract for the prevention and treatment of obesity and type II diabetes” (priority 2005, published 2008).

Key:
[1] = without gastroprotection
[2] = target: T1, pancreatic lipase (Homo sapiens, UniProt P16233)
T1 sequence (P16233 17-465): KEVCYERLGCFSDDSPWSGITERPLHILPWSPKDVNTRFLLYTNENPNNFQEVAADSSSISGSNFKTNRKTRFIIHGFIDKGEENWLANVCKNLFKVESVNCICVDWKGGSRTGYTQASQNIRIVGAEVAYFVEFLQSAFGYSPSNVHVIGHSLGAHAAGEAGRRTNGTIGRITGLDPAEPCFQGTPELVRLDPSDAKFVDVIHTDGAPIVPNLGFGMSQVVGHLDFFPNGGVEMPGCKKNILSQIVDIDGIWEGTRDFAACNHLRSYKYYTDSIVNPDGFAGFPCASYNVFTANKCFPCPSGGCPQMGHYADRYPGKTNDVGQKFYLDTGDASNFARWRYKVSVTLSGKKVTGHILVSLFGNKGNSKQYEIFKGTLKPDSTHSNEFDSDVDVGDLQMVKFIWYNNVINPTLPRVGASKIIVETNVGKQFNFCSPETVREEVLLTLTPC

COc1c(-c2ccccc2)oc2cc(O)cc(O)c2c1=O [3-methylethergalangin]
stability to the gastric juices [1]: not broken down by the gastric juices | IC50, inhibition of pancreatic lipase [2]: around 1 mg/ml
